Data taken from patent US20240317777A1, “NOVEL MACROCYCLIC AMINOPYRAZOLE COMPOUNDS AS CDK2 INHIBITORS” (Accutar Biotechnology Inc., priority 2023, published 2024).
Like-named read-outs stand apart in the source and are kept apart here.

How the values were obtained:
[1] = target: CDK1-CYCLIN B (Homo sapiens, UniProt P06493); assay: CDK protein kinase inhibition by ADP-Glo assay, CDK1-CYCLIN B; assay type: biochemical; conditions: for IC50: ADP-Glo, 1000 μM ATP, read-out: CDK1-CYCLINB, IC50; for CDK2 Fold selectivity, CDK1: CDK2 versus CDK1
Summary of the method: (§1)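 In this assay, substrate phosphorylation by each CDK/cyclin pair is measured indirectly as ADP, read by ADP-Glo luminescence. The reaction uses 1000 μM ATP at 22° C in pH 7.5 buffer with 1% DMSO.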

[2] = target: CDK2-CYCLIN E1 (Homo sapiens, UniProt P24941); assay: CDK protein kinase inhibition by ADP-Glo assay, CDK2-CYCLIN E1; assay type: biochemical; conditions: ADP-Glo, 1000 μM ATP, read-out: CDK2-CYCLINE, IC50
Summary of the method: as §1

[3] = target: CDK4-CYCLIN D1 (Homo sapiens, UniProt P11802); assay: CDK protein kinase inhibition by ADP-Glo assay, CDK4-CYCLIN D1; assay type: biochemical; conditions: for IC50: ADP-Glo, 1000 μM ATP, read-out: CDK4-CYCLIND1, IC50; for CDK2 Fold selectivity, CDK4: CDK2 versus CDK4
Summary of the method: as §1

[4] = target: CDK6-CYCLIN D3 (Homo sapiens, UniProt Q00534); assay: CDK protein kinase inhibition by ADP-Glo assay, CDK6-CYCLIN D3; assay type: biochemical; conditions: for IC50: ADP-Glo, 1000 μM ATP, read-out: CDK6-CYCLIND3, IC50; for CDK2 Fold selectivity, CDK6: CDK2 versus CDK6
Summary of the method: as §1

[5] = target: CDK9-CYCLIN T1 (Homo sapiens, UniProt P50750); assay: CDK protein kinase inhibition by ADP-Glo assay, CDK9-CYCLIN T1; assay type: biochemical; conditions: for IC50: ADP-Glo, 1000 μM ATP, read-out: CDK9-CYCLINT1, IC50; for CDK2 Fold selectivity, CDK9: CDK2 versus CDK9
Summary of the method: as §1

[6] = tested on: Phospho-Rb (Ser807/811) in OVCAR3 cells; assay: Phospho-Rb expression inhibition in OVCAR3 cells quantified by In Cell Western; assay type: cell-based; conditions: Homo sapiens, OVCAR-3, 24 hours, read-out: OVCAR-3 pRb IC50
Summary of the method: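 In-cell western: after 24 h compound exposure at 37° C, fixed OVCAR3 cells co-stained for pRb Ser807/811 (800 nm channel) and total Rb (680 nm channel), imaged by LI-COR Odyssey.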

[7] = tested on: CCNE1-amplified OVCAR3 cells; assay: Cell growth inhibition of CCNE1-amplified OVCAR3 cells (CellTiter-Glo); assay type: cell-based; conditions: Homo sapiens, OVCAR-3, 144 h, 6 days
Summary of the method: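 Growth read-out was CellTiter-Glo luminescence, taken after 10 min at room temperature at the end of a 6-day compound exposure at 37 °C. Compounds were diluted from DMSO stocks across various concentrations.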

[8] = tested on: CCNE1-normal SKOV3 cells; assay: Cell growth inhibition of CCNE1-normal SKOV3 cells (CellTiter-Glo); assay type: cell-based; conditions: Homo sapiens, SK-OV-3, 144 h, 6 days
Summary of the method: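 Growth was measured by CellTiter-Glo luminescence after 6 days' compound exposure at 37 °C. Cells were plated one day before dosing at 1000 per well in medium with 10% FBS, and compounds were diluted from DMSO stocks.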

Sequence of CDK6-CYCLIN D3 (Q00534 whole entry): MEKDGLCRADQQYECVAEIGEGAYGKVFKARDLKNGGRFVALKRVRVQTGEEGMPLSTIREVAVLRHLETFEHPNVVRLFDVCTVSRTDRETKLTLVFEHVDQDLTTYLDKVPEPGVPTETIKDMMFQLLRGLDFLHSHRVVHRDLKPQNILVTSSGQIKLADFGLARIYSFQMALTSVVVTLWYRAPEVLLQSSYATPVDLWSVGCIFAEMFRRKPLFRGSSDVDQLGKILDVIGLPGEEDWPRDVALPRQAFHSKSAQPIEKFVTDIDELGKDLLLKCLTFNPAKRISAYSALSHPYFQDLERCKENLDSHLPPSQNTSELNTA
Sequence of CDK6-CYCLIN D3 (P30281 whole entry partner): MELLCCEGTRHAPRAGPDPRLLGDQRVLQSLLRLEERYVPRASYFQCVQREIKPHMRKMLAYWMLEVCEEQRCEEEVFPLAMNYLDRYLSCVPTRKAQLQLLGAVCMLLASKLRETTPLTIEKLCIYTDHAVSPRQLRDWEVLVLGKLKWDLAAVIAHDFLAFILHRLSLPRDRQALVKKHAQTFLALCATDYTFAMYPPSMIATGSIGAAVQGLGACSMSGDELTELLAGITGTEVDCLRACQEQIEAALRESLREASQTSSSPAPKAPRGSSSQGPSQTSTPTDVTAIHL
Sequence of CDK1-CYCLIN B (P06493 whole entry): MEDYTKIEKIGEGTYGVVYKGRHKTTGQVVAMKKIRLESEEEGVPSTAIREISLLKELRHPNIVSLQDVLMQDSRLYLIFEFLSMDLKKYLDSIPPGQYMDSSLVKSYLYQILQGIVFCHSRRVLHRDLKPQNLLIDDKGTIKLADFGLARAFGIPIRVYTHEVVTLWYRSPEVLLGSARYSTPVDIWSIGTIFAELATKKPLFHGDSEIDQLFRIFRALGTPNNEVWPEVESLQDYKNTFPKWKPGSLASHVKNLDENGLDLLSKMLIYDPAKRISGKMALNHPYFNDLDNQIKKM
Sequence of CDK1-CYCLIN B (P14635 whole entry partner): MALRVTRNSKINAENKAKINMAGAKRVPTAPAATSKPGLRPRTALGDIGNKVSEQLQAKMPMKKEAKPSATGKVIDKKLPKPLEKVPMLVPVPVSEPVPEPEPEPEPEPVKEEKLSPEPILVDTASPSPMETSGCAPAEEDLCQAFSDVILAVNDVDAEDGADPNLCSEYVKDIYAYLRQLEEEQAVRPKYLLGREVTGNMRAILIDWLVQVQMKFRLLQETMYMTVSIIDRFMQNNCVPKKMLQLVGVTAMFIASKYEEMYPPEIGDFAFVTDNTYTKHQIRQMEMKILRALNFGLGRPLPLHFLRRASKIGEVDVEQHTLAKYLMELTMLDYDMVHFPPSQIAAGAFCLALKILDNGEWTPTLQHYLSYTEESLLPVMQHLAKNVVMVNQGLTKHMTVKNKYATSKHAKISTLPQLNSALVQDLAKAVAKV
Sequence of CDK4-CYCLIN D1 (P11802 whole entry): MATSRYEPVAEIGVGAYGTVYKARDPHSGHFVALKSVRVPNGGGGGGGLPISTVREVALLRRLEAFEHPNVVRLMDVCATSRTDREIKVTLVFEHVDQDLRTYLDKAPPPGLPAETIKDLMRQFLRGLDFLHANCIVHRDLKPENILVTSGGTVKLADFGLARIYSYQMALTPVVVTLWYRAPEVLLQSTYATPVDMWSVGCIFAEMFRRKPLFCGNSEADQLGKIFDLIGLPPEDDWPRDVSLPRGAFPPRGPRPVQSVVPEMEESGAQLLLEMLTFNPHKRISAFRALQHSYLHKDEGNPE
Sequence of CDK4-CYCLIN D1 (P24385 whole entry partner): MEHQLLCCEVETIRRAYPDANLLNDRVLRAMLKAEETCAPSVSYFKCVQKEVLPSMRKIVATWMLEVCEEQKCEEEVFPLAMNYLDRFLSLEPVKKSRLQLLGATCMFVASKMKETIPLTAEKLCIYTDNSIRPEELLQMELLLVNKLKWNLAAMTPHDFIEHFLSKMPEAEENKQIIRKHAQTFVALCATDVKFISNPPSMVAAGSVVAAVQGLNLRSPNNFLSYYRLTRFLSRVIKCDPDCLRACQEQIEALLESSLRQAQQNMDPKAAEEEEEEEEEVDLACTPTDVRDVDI
Sequence of CDK9-CYCLIN T1 (P50750 whole entry): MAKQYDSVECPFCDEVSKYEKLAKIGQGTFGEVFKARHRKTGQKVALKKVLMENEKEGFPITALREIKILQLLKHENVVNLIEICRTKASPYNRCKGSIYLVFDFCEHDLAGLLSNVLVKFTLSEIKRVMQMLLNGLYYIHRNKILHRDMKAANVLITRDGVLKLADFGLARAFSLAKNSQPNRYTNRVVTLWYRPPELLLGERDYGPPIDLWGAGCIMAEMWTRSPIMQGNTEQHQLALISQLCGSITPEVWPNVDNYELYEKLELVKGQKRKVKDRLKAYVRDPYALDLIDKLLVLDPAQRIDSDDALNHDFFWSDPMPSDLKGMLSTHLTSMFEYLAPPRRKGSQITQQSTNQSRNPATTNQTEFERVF
Sequence of CDK9-CYCLIN T1 (O60563 whole entry partner): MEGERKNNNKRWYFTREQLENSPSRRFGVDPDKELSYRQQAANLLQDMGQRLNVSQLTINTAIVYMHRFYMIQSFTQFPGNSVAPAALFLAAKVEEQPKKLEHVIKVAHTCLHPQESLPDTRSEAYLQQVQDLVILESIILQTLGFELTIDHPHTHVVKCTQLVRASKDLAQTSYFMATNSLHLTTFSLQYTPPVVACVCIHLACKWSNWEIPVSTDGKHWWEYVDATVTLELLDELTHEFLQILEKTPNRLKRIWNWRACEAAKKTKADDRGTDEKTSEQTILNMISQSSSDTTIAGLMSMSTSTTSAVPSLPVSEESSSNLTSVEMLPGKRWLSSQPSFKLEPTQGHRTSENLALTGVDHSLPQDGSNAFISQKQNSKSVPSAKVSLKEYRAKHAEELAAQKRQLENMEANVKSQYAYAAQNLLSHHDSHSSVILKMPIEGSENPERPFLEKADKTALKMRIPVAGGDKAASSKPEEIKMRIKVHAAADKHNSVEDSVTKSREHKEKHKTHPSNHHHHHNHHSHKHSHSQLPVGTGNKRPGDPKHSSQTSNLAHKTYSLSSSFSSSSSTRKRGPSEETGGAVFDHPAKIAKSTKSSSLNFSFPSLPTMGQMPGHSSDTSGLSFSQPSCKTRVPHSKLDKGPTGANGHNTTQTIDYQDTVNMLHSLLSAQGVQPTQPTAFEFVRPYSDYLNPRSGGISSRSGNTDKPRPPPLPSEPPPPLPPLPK

With O=C1NC2CC3(C2)CC(C3)Oc2cc(ccn2)Nc2cc(n[nH]2)[C@H]2CC[C@H](C2)O1 [Compound 128, (6^1S,6^3R,Z)-5^1H-2,7-dioxa-4,9-diaza-3(2,4)-pyridina-5(5,3)-pyrazola-6(1,3)-cyclopentana-1,10(1,3)-dicyclobutanadecaphan-8-one] the IC50 ([1]; Table 17) was 10 to 50 nM, the “CDK2 Fold selectivity, CDK1” value ([1]; Table 18) was “E (E, <20)” and the IC50 ([2]; Table 17) was ≤ 10 nM. The IC50 ([3]; Table 17) was 10 to 50 nM, the “CDK2 Fold selectivity, CDK4” value ([3]; Table 18) was “D (D, >20 and ≤50)” and the IC50 ([4]; Table 17) was 10 to 50 nM. For the same compound, the “CDK2 Fold selectivity, CDK6” value ([4]; Table 18) was “E (E, <20)”, the IC50 ([5]; Table 17) was 10 to 50 nM and the “CDK2 Fold selectivity, CDK9” value ([5]; Table 18) was “E (E, <20)”. It also gave an IC50 [6] of 2 to 10 nM, an IC50 [7] of 2 to 10 nM and an IC50 [8] of 250 to 1250 nM.

For C[C@@H]1CCC#Cc2cc(ccn2)Nc2cc(n[nH]2)[C@H]2CC[C@H](C2)OC(=O)N1 [Compound 137, (1^1S,1^3R,2^4Z,9R)-9-methyl-2^1H-12-oxa-3,10-diaza-4(4,2)-pyridina-2(3,5)-pyrazola-1(1,3)-cyclopentanacyclododecaphan-5-yn-11-one], the IC50 ([1]; Table 19) was 100 to 500 nM, the “CDK2 Fold selectivity, CDK1” value ([1]; Table 20) was “E (E, <20)” and the IC50 ([2]; Table 19) was 10 to 50 nM. For the same compound, the IC50 ([3]; Table 19) was > 500 nM, the “CDK2 Fold selectivity, CDK4” value ([3]; Table 20) was “E (E, <20)” and the IC50 ([4]; Table 19) was > 500 nM. For the same compound, the “CDK2 Fold selectivity, CDK6” value ([4]; Table 20) was “D (D, >20 and ≤50)”, the IC50 ([5]; Table 19) was > 500 nM and the “CDK2 Fold selectivity, CDK9” value ([5]; Table 20) was “D (D, >20 and ≤50)”. The IC50 [6] was 10 to 50 nM, the IC50 [7] was 50 to 250 nM and the IC50 [8] was > 1250 nM.

With C[C@H]1Oc2cc(ccn2)Nc2cc(n[nH]2)[C@H]2CC[C@H](C2)OC(=O)N[C@H]2C[C@H]1C2 [Compound 144, (1^1S,1^3R,7^1R,7^3R,6R,Z)-6-methyl-2^1H-5,10-dioxa-3,8-diaza-4(4,2)-pyridina-2(3,5)-pyrazola-1(1,3)-cyclopentana-7(1,3)-cyclobutanacyclodecaphan-9-one] the IC50 ([1]; Table 21) was 100 to 500 nM, the “CDK2 Fold selectivity, CDK1” value ([1]; Table 22) was “E (E, <20)” and the IC50 ([2]; Table 21) was ≤ 10 nM. The IC50 ([3]; Table 21) was 100 to 500 nM, the “CDK2 Fold selectivity, CDK4” value ([3]; Table 22) was “D (D, >20 and ≤50)” and the IC50 ([4]; Table 21) was 100 to 500 nM. For the same compound, the “CDK2 Fold selectivity, CDK6” value ([4]; Table 22) was “D (D, >20 and ≤50)”, the IC50 ([5]; Table 21) was 100 to 500 nM and the “CDK2 Fold selectivity, CDK9” value ([5]; Table 22) was “C (C, >50 and ≤100)”. For the same compound, the IC50 [6] was 2 to 10 nM, the IC50 [7] was 2 to 10 nM and the IC50 [8] was 250 to 1250 nM.

In the case of C[C@H]1Oc2cncc(c2)Nc2cc(n[nH]2)[C@H]2CC[C@H](C2)OC(=O)N[C@H]2C[C@H]1C2 [Compound 148, (1^1S,1^3R,7^1R,7^3R,6R,Z)-6-methyl-2^1H-5,10-dioxa-3,8-diaza-4(3,5)-pyridina-2(3,5)-pyrazola-1(1,3)-cyclopentana-7(1,3)-cyclobutanacyclodecaphan-9-one], the IC50 ([1]; Table 21) is reported as 10 to 50 nM, the “CDK2 Fold selectivity, CDK1” value ([1]; Table 22) is reported as “E (E, <20)” and the IC50 ([2]; Table 21) is reported as ≤ 10 nM. The IC50 ([3]; Table 21) was 50 to 100 nM, the “CDK2 Fold selectivity, CDK4” value ([3]; Table 22) was “E (E, <20)” and the IC50 ([4]; Table 21) was 50 to 100 nM. For the same compound, the “CDK2 Fold selectivity, CDK6” value ([4]; Table 22) was “D (D, >20 and ≤50)”, the IC50 ([5]; Table 21) was 100 to 500 nM and the “CDK2 Fold selectivity, CDK9” value ([5]; Table 22) was “D (D, >20 and ≤50)”. The IC50 [6] was ≤ 2 nM, the IC50 [7] was 2 to 10 nM and the IC50 [8] was 250 to 1250 nM.

C[C@@H]1Oc2cncc(c2)Nc2cc(n[nH]2)[C@H]2CC[C@H](C2)OC(=O)N[C@H]2C[C@@H]1C2 [Compound 149, (1^1S,1^3R,7^1S,7^3R,6S,Z)-6-methyl-2^1H-5,10-dioxa-3,8-diaza-4(3,5)-pyridina-2(3,5)-pyrazola-1(1,3)-cyclopentana-7(1,3)-cyclobutanacyclodecaphan-9-one] was tested, and the IC50 ([1]; Table 23) was 100 to 500 nM, the “CDK2 Fold selectivity, CDK1” value ([1]; Table 24) was “E (E, <20)” and the IC50 ([2]; Table 23) was 10 to 50 nM. For the same compound, the IC50 ([3]; Table 23) was 100 to 500 nM, the “CDK2 Fold selectivity, CDK4” value ([3]; Table 24) was “E (E, <20)” and the IC50 ([4]; Table 23) was > 500 nM. The “CDK2 Fold selectivity, CDK6” value ([4]; Table 24) was “D (D, >20 and ≤50)”, the IC50 ([5]; Table 23) was > 500 nM and the “CDK2 Fold selectivity, CDK9” value ([5]; Table 24) was “C (C, >50 and ≤100)”. The IC50 [6] was 10 to 50 nM, the IC50 [7] was 10 to 50 nM and the IC50 [8] was > 1250 nM.

C[C@@H]1Oc2cncc(c2)Nc2cc(n[nH]2)[C@H]2CC[C@H](C2)OC(=O)N[C@H]2C[C@H]1C2 [Compound 150, (1^1S,1^3R,7^1R,7^3S,6S,Z)-6-methyl-2^1H-5,10-dioxa-3,8-diaza-4(3,5)-pyridina-2(3,5)-pyrazola-1(1,3)-cyclopentana-7(1,3)-cyclobutanacyclodecaphan-9-one] was tested, and the IC50 ([1]; Table 21) was 10 to 50 nM, the “CDK2 Fold selectivity, CDK1” value ([1]; Table 22) was “E (E, <20)” and the IC50 ([2]; Table 21) was ≤ 10 nM. For the same compound, the IC50 ([3]; Table 21) was 100 to 500 nM, the “CDK2 Fold selectivity, CDK4” value ([3]; Table 22) was “D (D, >20 and ≤50)” and the IC50 ([4]; Table 21) was 50 to 100 nM. The “CDK2 Fold selectivity, CDK6” value ([4]; Table 22) was “D (D, >20 and ≤50)”, the IC50 ([5]; Table 21) was 100 to 500 nM and the “CDK2 Fold selectivity, CDK9” value ([5]; Table 22) was “B (B, >100 and ≤500)”. It also gave an IC50 [6] of 2 to 10 nM, an IC50 [7] of 2 to 10 nM and an IC50 [8] of 250 to 1250 nM.

C[C@H]1CC[C@H](C)Oc2cncc(c2)Nc2cc(n[nH]2)[C@H]2CC[C@H](C2)OC(=O)N1 [Compound 151, (1^1S,1^3R,6S,9S,Z)-6,9-dimethyl-2^1H-5,12-dioxa-3,10-diaza-4(3,5)-pyridina-2(3,5)-pyrazola-1(1,3)-cyclopentanacyclododecaphan-11-one] was tested, and the IC50 ([1]; Table 21) was ≤ 10 nM, the “CDK2 Fold selectivity, CDK1” value ([1]; Table 22) was “E (E, <20)” and the IC50 ([2]; Table 21) was ≤ 10 nM. The IC50 ([3]; Table 21) was 50 to 100 nM, the “CDK2 Fold selectivity, CDK4” value ([3]; Table 22) was “D (D, >20 and ≤50)” and the IC50 ([4]; Table 21) was 50 to 100 nM. The “CDK2 Fold selectivity, CDK6” value ([4]; Table 22) was “D (D, >20 and ≤50)”, the IC50 ([5]; Table 21) was 100 to 500 nM and the “CDK2 Fold selectivity, CDK9” value ([5]; Table 22) was “D (D, >20 and ≤50)”. The IC50 [6] was 2 to 10 nM, the IC50 [7] was 2 to 10 nM and the IC50 [8] was 250 to 1250 nM.

C[C@@H]1CC[C@H](C)Oc2cncc(c2)Nc2cc(n[nH]2)[C@H]2CC[C@H](C2)OC(=O)N1 [Compound 152, (1^1S,1^3R,6S,9R,Z)-6,9-dimethyl-2^1H-5,12-dioxa-3,10-diaza-4(3,5)-pyridina-2(3,5)-pyrazola-1(1,3)-cyclopentanacyclododecaphan-11-one] was tested, and the IC50 ([1]; Table 21) was 10 to 50 nM, the “CDK2 Fold selectivity, CDK1” value ([1]; Table 22) was “E (E, <20)” and the IC50 ([2]; Table 21) was ≤ 10 nM. For the same compound, the IC50 ([3]; Table 21) was 50 to 100 nM, the “CDK2 Fold selectivity, CDK4” value ([3]; Table 22) was “D (D, >20 and ≤50)” and the IC50 ([4]; Table 21) was 50 to 100 nM. The “CDK2 Fold selectivity, CDK6” value ([4]; Table 22) was “E (E, <20)”, the IC50 ([5]; Table 21) was 100 to 500 nM and the “CDK2 Fold selectivity, CDK9” value ([5]; Table 22) was “D (D, >20 and ≤50)”. For the same compound, the IC50 [6] was 2 to 10 nM, the IC50 [7] was 10 to 50 nM and the IC50 [8] was 250 to 1250 nM.
